Measured values as given in PubChem BioAssay AID1249 (Columbia University Molecular Screening Center, 2008).
Active and inactive are the calls of the source. How the calls were made is not given here.

What was measured:
[1] = cellular cytoskeleton assembly phenotype modulators – imaging, high-content imaging, retest and dose response, confirmation (AID 1249); details: cell-based imaging, cytoskeleton assembly phenotype, high content; for cell count: at 10 µM, stronger effect = lower value; for inhibition: at 2 µM, stronger effect = higher value;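 on all read-outs here: compound exposure lasted 24 h before fixation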;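 on inhibition: plate controls were untreated cells for no effect and reference compound treated cells for full effect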
[2] = tested on: cell-based imaging, cytoskeleton assembly phenotype, high content; assay: as above

| Structure (SMILES) | cell count [1] [%] | IC50 [2] | inhibition [1] |
| --- | --- | --- | --- |
| CCOC(=O)c1[nH]c(C)c(C(=O)c2cc(F)ccc2F)c1C | 48.7 | > 10 µM (inactive) | – |
| CCOc1ccc(S(=O)(=O)Nc2cc(OC)ccc2OC)cc1 | 44.2 | > 10 µM (inactive) | – |
| C=CCSc1nc2ccccc2n1C(=O)/C=C/c1cc(OC)c(OC)c(OC)c1 | 102 | > 10 µM (inactive) | – |
| O=C(Nc1nc(-c2ccncc2)cs1)C1COc2ccccc2O1 (configuration not stated) | 92.2 | > 10 µM (inactive) | – |
| CC(C)Oc1ccccc1C1CC(=O)Nc2cc3c(cc21)OCCO3 (configuration not stated) | 88.5 | > 10 µM (inactive) | – |
| O=Cc1cc2ccccc2nc1SCc1ccc(Cl)c(Cl)c1 | 94.3 | > 10 µM (inactive) | – |
| CCOc1cc(CNc2ccc3c(c2)OCCO3)cc(Br)c1OC | 37.1 | > 10 µM (inactive) | – |
| COc1cc(C2C3=C(Nc4ncnn42)c2ccccc2CC3)cc(OC)c1OC (configuration not stated) | 43.2 | 5 µM | – |
| COc1ccc(NC(=O)/C(Cl)=C(/Cl)S(=O)Cc2ccccc2)cn1 (configuration not stated) | 48.1 | > 10 µM (inactive) | – |
| Cc1ccc(-c2nc(NC(=O)c3nn(C)cc3[N+](=O)[O-])sc2C)cc1C | 88 | > 10 µM (inactive) | – |
| Cn1cc(/C=N/n2cnc3scc(-c4ccc(Cl)cc4)c3c2=O)c2ccccc21 | 60.8 | > 10 µM (inactive) | – |
| CCCOc1ccccc1C1CC(=O)Nc2cc3c(cc21)OCCO3 (configuration not stated) | 125 | > 10 µM (inactive) | – |
| Cc1c(C(=O)OCC(C)C)[nH]c2c1C(=O)CC(c1ccco1)C2 (configuration not stated) | 38.8 | > 10 µM (inactive) | – |
| N#CC1=C2SCC(O)(c3ccccc3)N2C(=O)CC1c1cccs1 (configuration not stated) | 26.4 | > 10 µM (inactive) | – |
| COc1cc(-c2nnc3n2N=C(c2ccccc2)CS3)cc(OC)c1OC | 90.7 | > 10 µM (inactive) | – |
| CCOC(=O)Nc1nc(-c2ccccc2)c(C(=O)c2ccccc2)s1 | 53.7 | > 10 µM (inactive) | – |
| CCCCN1C(=O)/C(=C/C=C2\N(C)c3ccccc3C2(C)C)SC1=S | 94.3 | > 10 µM (inactive) | – |
| CC(/C=N/NC(=O)c1cc(-c2ccncc2)nc2ccccc12)=C\c1ccco1 | 35.1 | 4.55 µM | – |
| Cc1cc(=O)oc2cc(OCC3CC(c4ccccc4Cl)=NO3)ccc12 (configuration not stated) | 92.5 | > 10 µM (inactive) | – |
| CN(C)c1ccc(C(=O)c2ccc(N(C)C)c3ccccc23)cc1 | 28.2 | 0.599 µM | – |
| N#CC1=C(N)Oc2c(ccc3ccccc23)C1c1cccs1 (configuration not stated) | 28.9 | > 10 µM (inactive) | – |
| O=C(N/N=C/C(Br)=C\c1ccccc1)c1n[nH]c2c1CCC2 | 33.3 | 0.582 µM | – |
| COc1cc(N2CCCC2)c(OC)cc1/C=c1/sc2nc3ccccc3n2c1=O | 87.5 | > 10 µM (inactive) | – |

| Structure (SMILES) | cell count [1] [%] | IC50 [2] | inhibition [1] |
| --- | --- | --- | --- |
| O=C(c1ccco1)N1CCN(C(=O)N2c3ccccc3Sc3ccccc32)CC1 | 42 | > 10 µM (inactive) | – |
| Cc1cc(C)c2nc(SCC(=O)N3CC(=O)Nc4ccccc43)c(C#N)cc2c1 | 51.1 | > 10 µM (inactive) | – |
| CCOC(=O)c1[nH]c(C)c(C(=O)N2CCc3ccccc32)c1C | 31.8 | 5 µM | – |
| COCCN1C(=O)c2oc3c(C)cc(C)cc3c(=O)c2C1c1cccc(O)c1 (configuration not stated) | 86 | > 10 µM (inactive) | – |
| O=C(CS(=O)c1ccc(C(F)(F)F)cc1[N+](=O)[O-])Oc1ccccc1 (configuration not stated) | 94.1 | > 10 µM (inactive) | – |
| COc1cc(C2C(C#N)=C(C)NC3=C2C(=O)c2ccccc23)cc(OC)c1OC (configuration not stated) | 34 | 1.55 µM | – |
| Cc1ccc2[nH]c(-c3ccccc3)cc(=O)c2c1 | 41.3 | > 10 µM (inactive) | – |
| COc1ccc(CCNc2nnc(Sc3nnnn3-c3ccccc3)s2)cc1OC | 32.1 | 1.87 µM | – |
| CCn1c2ccccc2c2cc(NC(=O)c3cc(OC)c(OC)c(OC)c3)ccc21 | 32.4 | 1.73 µM | – |
| N=c1oc2c3c4c(cc2cc1C(=O)Nc1ccccc1)CCCN4CCC3 | 99.4 | 8.21 µM | – |
| CCOc1ccccc1C(=O)N1CCN(c2cccc(Cl)c2)CC1 | 36.6 | 1.25 µM | – |
| CC1=CC(C)(C)N(S(=O)(=O)c2ccc(C)cc2)c2cc(C)ccc21 | 90.8 | > 10 µM (inactive) | – |
| CCCC1=Nc2cc(C(=O)NCCCOCC)ccc2Sc2ccccc21 | 37.3 | 0.873 µM | – |
| COc1ccccc1-c1cn(S(=O)(=O)c2ccc(C)cc2)nc1N | – | – | 7.9% (inactive) |
| CCOC(=O)C1=C(c2ccccc2)O/C(=C(/C#N)C(F)(F)F)S1 | – | – | 2.3% (inactive) |
| O=S(=O)(C/C(=C/CO)S(=O)(=O)c1ccccc1)c1ccccc1 | – | – | -4.1% (inactive) |
| Nc1c(C(=O)NC2CCCC2)c2nc3ccccc3nc2n1N | – | – | -22.3% (inactive) |
| Cc1cccc(NC(=O)CN2NS(=O)(=O)c3ccccc3C2=O)c1 | – | – | -4.6% (inactive) |
| COc1cc(C2C(C#N)=C(N)Oc3cc(N(C)C)ccc32)cc2c1OCO2 (configuration not stated) | 39.3 | – | – |
| COc1cc2c(cc1OC)/C(=C/C#N)NC(C)(C)C2 | – | – | 1.8% (inactive) |
| N#Cc1cc2c(nc1SCC(=O)N1CCCCC1)CCCC2 | – | – | 2.1% (inactive) |
| Cc1cc(NC(=O)NC(=O)c2cccc(OC(F)(F)C(F)F)c2)n[nH]1 | – | – | -2.9% (inactive) |
| COc1ccc(-c2nnc(SCC(=O)N3CCCc4ccccc43)o2)cc1OC | – | – | -16.4% (inactive) |

| Structure (SMILES) | cell count [1] [%] | IC50 [2] | inhibition [1] |
| --- | --- | --- | --- |
| CCCc1sc(N/N=C/c2ccccn2)nc1-c1ccc(Br)cc1 | – | – | -11.5% (inactive) |
| Cc1ccc(-c2nnc3ccc(SCC(=O)Nc4cc(C)on4)nn23)cc1 | – | – | -5.1% (inactive) |
| COc1ccc(C2=Nn3c(nnc3-c3ccccc3OC)SC2)cc1OC | – | – | 0.9% (inactive) |
| CCN1/C(=C\C=C\C2=[N+](CC)c3ccccc3C2(C)C)C(C)(C)c2ccccc21 | – | – | -15.4% (inactive) |
| Cc1cccnc1Nc1nc(-c2ccccn2)cs1 | – | – | -5.7% (inactive) |
| Cc1ccc(NS(=O)(=O)c2cc(C(=O)NCCSC3CCCCC3)ccc2C)cc1 | – | – | -1.3% (inactive) |
| COc1ccc(CC(=O)Nc2ccc(-c3noc(-c4cccc(OC)c4)n3)cc2)cc1 | – | – | 13.6% (inactive) |
| Cc1cc(S(=O)(=O)NCCN2CCOCC2)c(C)s1 | – | – | 4.3% (inactive) |
| CCOc1cc(/C=C2/C(=O)N(c3ccccc3)N=C2C)ccc1OC(=O)c1ccco1 | – | – | 4.7% (inactive) |
| CC1(C)Cc2c(oc3ncn4ncnc4c23)CO1 | – | – | 2.7% (inactive) |
| Cc1ccc2[nH]c3c(c2c1)CCC3=O | – | – | -8.6% (inactive) |
| O=C(O)C1C2C=CC(O2)C1C(=O)Nc1ccc(S(=O)(=O)Nc2ccccc2)cc1 (configuration not stated) | – | – | -5.8% (inactive) |
| COC(=O)c1ccc(CSc2nnc(-c3ccncc3)n2Cc2ccccc2)o1 | – | – | 1.6% (inactive) |
| COC(=O)CCC(=O)Nc1cccc(Br)c1 | – | – | 4.9% (inactive) |
| Cc1cc(C)cc(OCc2nnc(SCC(=O)N3CCN(c4ccccc4)CC3)o2)c1 | – | – | -9.6% (inactive) |
| C/C(=C\C(=O)c1cccnc1)Nc1ccc(C)c(C)c1 | – | – | 1.3% (inactive) |
| NC(=O)c1c(NC(=O)Cc2cccs2)sc2c1CCC2 | – | – | 6.6% (inactive) |
| Cc1ccc(C(=O)CSc2nnc(COc3ccc(C#N)cc3)n2-c2ccccc2)cc1 | – | – | -3% (inactive) |
| CCOc1ccc(-n2cc(C(=O)NCc3ccco3)c3cc(OC)c(OC)cc3c2=O)cc1 | – | – | -5.9% (inactive) |
| COc1ccc(Cn2c(CCC(=O)O)nc3cccnc32)cc1 | – | – | -3% (inactive) |
| O=c1n(Cc2ccccc2F)c2ccccc2n1Cc1ccccc1F | – | – | 5.3% (inactive) |
| O=c1cc(C(Cl)(Cl)Cl)oc2c1ccc1ccccc12 | – | – | -13.6% (inactive) |
| Cc1nc(NC(C)C)c2oc3ccccc3c2n1 | – | – | 4.2% (inactive) |

| Structure (SMILES) | cell count [1] [%] | IC50 [2] | inhibition [1] |
| --- | --- | --- | --- |
| CCOc1cc(/C=N\NC(=O)Cc2ccccc2)ccc1OCC(=O)Nc1ccc(C)c(C)c1 | – | – | -0.8% (inactive) |
| CC1CCCN(c2nc3ccsc3c(=O)s2)C1 (configuration not stated) | – | – | 2.9% (inactive) |
| O=C(NCc1ccco1)c1cc(-c2ccc(Cl)cc2)on1 | – | – | 10.5% (inactive) |
| O=C(CCS(=O)(=O)c1ccccc1)Nc1nc2c(s1)COc1ccccc1-2 | – | – | 6.6% (inactive) |
| CCCC(=O)Nc1ccc(Cl)c(NC(=O)CC)c1 | – | – | -2% (inactive) |
| CCOc1ccc(-n2c(SCC(=O)Nc3ccc(OC)cc3)nc3c(c2=O)SCC3)cc1 | – | – | 7.9% (inactive) |
| CCOC(=O)c1cnn(-c2nc(CC)nc3sc4c(c23)CCC4)c1N | – | – | -4.7% (inactive) |
| CCOc1ccc2ccccc2c1/C=N/n1cncn1 | – | – | 1.1% (inactive) |
| Cc1cc(C)c(/C=N/NC(N)=O)c(C)c1/C=N/NC(N)=O | – | – | -10% (inactive) |
| O=C(O)c1c[nH]c2ccc(S(=O)(=O)N3CCOCC3)cc12 | – | – | -7.4% (inactive) |
| O=c1[nH]c2cccnc2n1Cc1ccccc1 | – | – | -3.8% (inactive) |
| COc1ccc(S(=O)(=O)Nc2cc3c(C(C)=O)c(C)oc3c3ccccc23)cc1 | – | – | -5.1% (inactive) |
| Cc1cc(C)c(C#N)c(SCc2nc3ccccc3[nH]2)n1 | – | – | -5.7% (inactive) |
| O=C(NC(NC1CCS(=O)(=O)C1)C(=O)c1cccs1)c1ccccc1 (configuration not stated) | – | – | 6.8% (inactive) |
| CCN(CC)c1ccc(C2=NNC(=O)CC2C)cc1[N+](=O)[O-] (configuration not stated) | – | – | -7.3% (inactive) |
| O=C(Nc1ccccc1)/C(=C\c1ccc2c(c1)OCO2)NC(=O)c1ccco1 | – | – | -0.8% (inactive) |
| O=C(COC(=O)C1c2ccccc2Oc2ccccc21)NC1CCS(=O)(=O)C1 (configuration not stated) | – | – | -16.7% (inactive) |
| Cc1ccc(C(=O)NCCCn2ccnc2)cn1 | – | – | 1.3% (inactive) |
| CCOC(=O)c1c(C)c(C(=O)O)n(C)c1C | – | – | -14.7% (inactive) |
| COc1cc2c3c(c1OC)-c1cc(O)ccc1CC3NCC2 (configuration not stated) | – | – | -1.7% (inactive) |
| CCOc1cc(C(=O)OCC(=O)c2c(C)[nH]c3ccccc23)ccc1OCC(=O)N1CCOCC1 | – | – | -10.4% (inactive) |
| CCOC(=O)N1CCN(C(=O)c2ccc3c(c2)NC(=O)C(N2CCOCC2)S3)CC1 (configuration not stated) | – | – | -8.5% (inactive) |
